# From patent US20260137662A1, “CD11B AGONISTS FOR TREATMENT OF AUTOIMMUNE DISEASE” (Rush University Medical Center, priority 2022, published 2026)
# Entries after “also recorded” stand apart in the source; their conditions may differ.
# What was measured:
# [1] = test system: humanized mouse model of SLE (SLE-NSG mice); test: Humanized SLE mouse model (NSG mice engrafted with SLE patient PBMCs); assay type: in vivo
# Experimental: NSG mice engrafted with healthy control or SLE PBMCs were subsequently treated with LA1 or vehicle and human dsDNA levels were measured after 4 weeks of treatment. Each dot represents a unique sample. Bars show mean +/−SEM (n=3-6).
# NSG mice engrafted with healthy control or SLE PBMCs were subsequently treated with LA1 or vehicle and suPAR levels were measured after 4 weeks of treatment. Each dot represents a unique sample. Bars show mean +/−SEM (n=3-6). […]
# NSG mice engrafted with healthy control or SLE PBMCs were subsequently treated with LA1 or vehicle and ACR was measured after 4 weeks of treatment. Each dot represents a unique sample. Bars show mean +/−SEM (n=3-6).
# FIG. 14A illustrates alopecia in control mouse models (Ctrl), mice engrafted with heathy PBMCs (HC), humanized SLE models treated with vehicle (Veh), and humanized SLE models treated with LA1. […]
# The efficacy of CD11b agonist LA1 as a therapeutic was studied using a generated humanized mouse model of SLE. To generate the humanized SLE model, immunocompromised NSG mice engrafted with peripheral blood mononuclear cells (PBMCs) from either SLE patients or from healthy human donors (control). 2.5×10^6 purified PBMCs were injected intravenously into NSG mice on day 0. The humanized mice were monitored daily for significant clinical signs of SLE (alopecia, skin lesions, weight loss & arthritis), morbidity and mortality. Body weights were recorded weekly and skin lesions were photographed and scored weekly.
# A small sample of peripheral blood was drawn from the mice under general anesthesia 2, 4 and 6 wks post-humanization by penetrating the retro-orbital sinus in mice with a sterile Pasteur pipette. The blood sample was split for fluorescence-activated cell sorting (FACS) analysis and serum preparation. […] For serum, the whole blood was clotted at room temperature for 30 minutes, followed by a 10-minute centrifugation at 10,000 RPM. The red blood cell-free serum was transferred into micro-centrifuge tubes and stored at −80° C. until further analysis. Additionally, urine samples were collected weekly, transferred into a micro-centrifuge tube and stored at −80° for future analysis. Urine protein was measured using a sandwich ELISA specific for mouse albumin (Bethyl Laboratories, TX) and urinary creatinine was determined using the Creatinine Companion kit (Exocell, PA) according to manufacturer's protocol.
# To test the efficacy of LA1 on humanized SLE mouse models, the generated SLE-NSG mice were treated with LA1 (2 mg/kg i.p. daily) starting at two weeks post administration of PBMCs and until experiment completion. Concentrations of human dsDNA, mouse suPAR, and IFNb were measured in NSG mice, NSG mice engrafted with PBMCs from a healthy donor, untreated SLE-NSG mice, SLE-NSG mice treated with a vehicle, and SLE-NSG mice treated with LA1.
# [2] = test system: LPS-treated wild type C57BL/6 mice; test: Serum IL-6 in LPS-treated mice, oral LA1 dose response; assay type: in vivo; details: 4 hours
# Experimental: FIG. 11 illustrates the concentration of biomarker IL-6 in wild type mice and wild type mice co-treated with various dose amounts of LPS and LA1 (0, 2, 10, 30, or 60 mg/kg). Each dot represents a unique sample. Bars show mean +/−SEM (n=4).
# Administration of LPS to wild type C57BL/6 mice (WT) results in rapid elevation of pro-inflammatory mediators, such as IL-6, in murine sera. WT mice treated with LPS were used to study the dose-responsive efficacy of LA1 in reducing inflammatory cytokine levels in vivo. A single dose of LA 1 was orally administered to mice co-administered LPS. After 4 hours, sera was collected and used for ELISA.
# [3] = test system: BMDMs from mice with global deletion of CD11b (KO); test: Biomarker secretion from IMQ-treated bone marrow derived macrophages of CD11b KO mice; assay type: cell-based; details: CD11b KO cells, IMQ (20 ug/mL) and LA1 (20 uM) co-treatment, 4 hours
# Experimental: (§1) FIG. 7A illustrates levels of biomarker IL-6 secretion in bone marrow derived macrophages (BMDMs) from C57BL/6 wild type (WT) mice, mice with global deletion of CD11b (KO), or C57BL/6 mice expressing CD11b with a point mutation (KI), the macrophages treated for 4 hours with vehicle DMSO (UT), LA1 (20 uM), IMQ (20 ug/mL), or IMQ and LA1 co-treatment. Bars show mean with SD (N=3) (*P<0.05, **P<0.01, ***P<0.001, ****P<0.0001).
# as §1, with “7B” for “7A”, “IL-1b” for “IL-6”
# as §1, with “7C” for “7A”, “suPAR” for “IL-6”
# as §1, with “7D” for “7A”, “IFNb” for “IL-6”
# Bone marrow derived macrophages (BMDMs) from C57BL/6 wild type mice (WT), mice with global deletion of CD11b (KO), and C57BL/6 mice expressing CD11b with a point mutation (KI), as described previously (Martinez et al., 2020) were used to evaluate the effect of pharmacologic activation of CD11b by LA1 or genetic activation of CD11b on TLR-pathway dependent biomarkers. BMDMs from WT, KO, and KI mice were left untreated, treated with LA1, treated with IMQ, or co-treated with LA1 and IMQ and levels of biomarkers IL-1b, suPAR, IL-6 and IFN-b were measured 4 hours after treatment.
# [4] = LA1 2 mg/kg i.p. daily from two weeks post PBMCs, after 4 weeks of treatment, vs vehicle, 2 mg/kg
# [5] = humanized SLE mice treated with LA1 vs vehicle
smiles,measurement,setting,value
"O=C(O)c1ccc(-c2ccc(/C=C3\SC(=S)N(Cc4ccccc4)C3=O)o2)cc1 [LA1, (Z)-4-(5-((3-benzyl-4-oxo-2-thioxothiazolidin-5-ylidene)methyl)furan-2-yl)benzoic acid]",concentration of IFNb in the serum,[1]; [4],significantly reduced; also recorded: reduction
same,concentration of anti-double stranded DNA antibodies (human dsDNA) in the serum,[1]; [4],significantly reduced; also recorded: reduction
same,concentration of suPAR in the serum,[1]; [4],significantly reduced; also recorded: reduction
same,urinary albumin creatinine ratios (ACR),[1]; [4],significantly reduced; also recorded: reduction
same,alopecia (nose area),[1]; [5],significantly reduced; also recorded: reduces alopecia
same,"number of GR1-positive, CD11b-positive cells in spleens",[1]; [5],reduction in number
same,number of neutrophils infiltrating in the kidney (H&E staining),[1]; [5],reduction in number
same,serum IL-6 levels versus non-LPS injected WT control,[2]; LA1 30 mg/kg oral,no difference
same,serum IL-6 levels versus non-LPS injected WT control,[2]; LA1 60 mg/kg oral,no difference
same,IL-6 levels in murine sera,"[2]; single oral dose of LA1 (2, 10, 30, 60 mg/kg) co-administered with LPS, dose dependent",significantly reduced
same,level of IFN-b in cell supernatant,[3],no effect
same,level of IL-1b in cell supernatant,[3],no effect
same,level of IL-6 in cell supernatant,[3],no effect
same,level of suPAR in cell supernatant,[3],no effect
